14 compounds from patent US8263044B2, “Stilbene like compounds as novel HDAC inhibitors” (Orchid Research Laboratories Limited, priority 2005, dated 2012) can be followed below.

Molecules are shown by their SMILES.

For data set [1], the system named is NCIH 460 cells. The data set can be described thus: cells. As to conditions: Homo sapiens, NCI-H460, 48 h; for GI50: read-out: NCIH460 GI50; for CC50: read-out: NCIH460 LC50.
Data set [2] relates to HCT 116 cells. The data set can be described thus: cells. Particulars: Homo sapiens, HCT-116, 48 h; for GI50: read-out: HCT116 GI50; for CC50: read-out: HCT116 LC50.
The test system of data set [3] is MDAMB231/U251. Nature of the data set: cells. Particulars: 48 h, read-out: MDAMB231/U251 GI50.
Data set [4] concerns HDAC activity (Mouse Liver Extract). Nature of the data set: Histone Deacetylase (HDAC) Inhibition Assay using Boc-Lys (Ac)-AMC Substrate. As to conditions: mouse liver enzyme; for HDAC Inhibition 1 μM: inhibitor at 1 μM; for HDAC Inhibition 1 μM / HDAC Inhibition 10 μM: in % (unit assumed); for HDAC Inhibition 10 μM: inhibitor at 10 μM. The data set is classed as biochemical. The gist of the method: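 Mouse liver extract (diluted 1:6) was preincubated with inhibitor for 5 min at 30° C, then reacted with Boc-Lys(Ac)-AMC for 30 min at 30° C. Trypsin stop solution was added for 20–30 min to release AMC, read by fluorescence at ex 360/365 nm and em 440/460 nm with buffer-plus-substrate blank subtracted.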

Data set [5] concerns NCIH460, HCT116, MDAMB231/U251. The data set can be described thus: Anti-cancer screen, mean GI50 over the cell lines. Particulars: mean over the three cell lines; no unit in table. The data set is classed as cell-based.
In data set [6] the test system is MDAMB231/U251. Nature of the data set: cells. As to conditions: 48 h, read-out: MDAMB231/U251 LC50.

On to `Cc1ncsc1C=C(C(=O)NCCCCCC(=O)NO)c1ccc(Cl)cc1` (stereo in doubt) [Example 12, (2Z)-3-(4-Methyl-1,3-thiazol-5-yl)-2-(4-chlorophenyl)-N-[6-(hydroxyamino)-6-oxohexyl]acrylamide], for which the melting point (commonly the temperature, or range, at which the solid turns liquid) was 78.5 to 79 °C.
As to `O=C(CCCCCNC(=O)/C(=C\c1ccc(F)c(Cl)c1)c1ccc(F)cc1)NO` [Example 10, (2Z)-3-(3-Chloro,4-fluorophenyl)-2-(4-fluorophenyl)-N-[6-(hydroxyamino)-6-oxohexyl]acrylamide], the melting point was in the range of 163.8 to 164.3 °C.
The compound `COc1cc(/C=C(\C(=O)NCCCCCC(=O)NO)c2ccc(O)cc2)cc(OC)c1` [Example 11, (2Z)-3-(3,5-dimethoxyphenyl)-2-(4-hydroxyphenyl)-N-[6-(hydroxyamino)-6-oxohexyl]acrylamide] returned a melting point of 144.1 to 144.6 °C.
For `O=C(CCCCCNC(=O)/C(=C\c1ccc(F)c(F)c1)c1ccc(F)cc1)NO` [Example 21], the melting point was in the range of 135.8 to 139.4 °C.
On the same count and under the same terms, the value for `O=C(CCCCCNC(=O)/C(=C\c1ccc(F)c(C(F)(F)F)c1)c1ccc(C(F)(F)F)cc1)NO` [Example 22, (2Z)-3-(4-Fluoro-3-trifluoromethyl-phenyl)-2-(4-trifluoromethylphenyl)-N-[6-(hydroxyamino)-6-oxohexyl]acrylamide] was 95.1 to 103.6 °C.
The same measure, in the same setting: the value for `COc1cc(/C=C(\C(=O)NCCCCCC(=O)NOCc2ccccc2)c2ccc(F)cc2)cc(OC)c1` [Example 33] was 79.9 to 86.7 °C.
In the case of `O=C(CCCCCNC(=O)/C(=C\c1ccc(F)c(Cl)c1)c1ccc(O)cc1)NO` [Example 42, (2Z)-3-(3-Chloro-4-fluorophenyl)-2-(4-hydroxyphenyl)-N-[6-(hydroxyamino)-6-oxohexyl]acrylamide], the melting point is 100.3 to 103.9 °C.
With `O=C(CCCCCNC(=O)/C(=C\c1ccc(Cl)s1)c1ccc(F)cc1)NO` [Example 44, (2Z)-3-(5-Chlorothiophen-2-yl)-2-(4-fluorophenyl)-N-[6-(hydroxyamino)-6-oxohexyl]acrylamide], the melting point was in the range of 181 to 185.2 °C.
In the case of `COc1cc(/C=C(\C(=O)NCCCCCC(=O)NO)c2ccc(F)cc2)ccc1O` [Example 46, (2Z)-3-(4-Hydroxy-3-methoxyphenyl)-2-(4-fluorophenyl)-N-[6-(hydroxyamino)-6-oxohexyl]acrylamide], the GI50 was found to be 5 µM in data set [1], 7 µM in data set [2], 3.5 µM in data set [3] and 5 µM in data set [5]. The CC50 in data set [1], in data set [2] and in data set [6] was over 100 µM in each case. The “HDAC Inhibition 1 μM” value in data set [4] is given as 60.53. Besides, the “HDAC Inhibition 10 μM” value in data set [4] is given as 70.82.
Regarding `O=C(CCCCCNC(=O)/C(=C\c1ccc(C(F)(F)F)cc1)c1ccc(F)cc1)NO` [Example 47, (2Z)-3-(4-Trifluoromethylphenyl)-2-(4-fluorophenyl)-N-[6-(hydroxyamino)-6-oxohexyl]acrylamide], the GI50 in data set [1] is 13 µM; in data set [2], 9 µM; in data set [3], 7.5 µM; in data set [5] it was 9.8 µM. Also, the CC50 is 98 µM in data set [1], 95 µM in data set [2] and over 100 µM in data set [6]. In addition, in data set [4], the “HDAC Inhibition 1 μM” value was found to be 49.92. Further, the “HDAC Inhibition 10 μM” value in data set [4] came out at 87.19.
In the case of `COc1cc(/C=C(\C(=O)NCCCCCC(=O)NO)c2ccc(F)cc2)cc(OC)c1OC` [Example 48, (2Z)-3-(3,4,5-Trimethoxyphenyl)-2-(4 fluorophenyl)-N-[6-(hydroxyamino)-6-oxohexyl]acrylamide], the melting point was in the range of 153 to 157 °C.
Turning to `CC(=O)N(O)C(=O)CCCCCNC(=O)/C(=C\c1ccc(Cl)o1)c1ccc(F)cc1` [Example 53, N-Acetyl-6-{[(2Z)-3-(5-chloro-2-furyl)-2-(4-fluorophenyl)-acrylamide]}-N-hydroxyhexanamide], the GI50 in data set [1] worked out at 13 µM; in data set [2], 5 µM; in data set [3], 5 µM; in data set [5], 7.7 µM. Moreover, the CC50 is 75 µM in data set [1], 65 µM in data set [2] and 70 µM in data set [6]. In data set [4], the “HDAC Inhibition 1 μM” value is reported as 69.80. Further, in data set [4], the “HDAC Inhibition 10 μM” value came out at 95.25. In addition, the IC50 (usually the concentration that inhibits the measured activity by half) in data set [4] came out at 0.06 µM.
`CSc1ccc(/C=C(\C(=O)NCCCCCC(=O)NC(Cc2ccc(O)cc2)C(=O)NO)c2ccc(F)cc2)cc1` (stereo not drawn) [Example 54] registered a melting point of 142.1 to 145.4 °C.
Regarding `COc1c(F)c(F)c(/C(=C/c2ccc(F)cc2)C(=O)NCCCCCC(=O)NC(Cc2ccc(O)cc2)C(=O)NO)c(F)c1F` (stereo not drawn) [Example 56], the melting point is 162.4 to 165.2 °C.
